For one assay, the system named is crabgrass. Put plainly: Test A pre-emergence. The class given is in vivo, Digitaria spp. Set-up: key: 0 = no effect, 10 = maximum effect; letter = response symbol. The settings on record: 0.4 kg/ha. The gist of the method:
(§1)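 Seeds and tubers were treated preemergence in a growth medium with compound in a nonphytotoxic solvent, against untreated controls; emerged plants such as two-leaf barnyardgrass and five-leaf cotton were sprayed postemergence, against solvent-sprayed controls. After sixteen days in a greenhouse, response was rated visually from 0 to 10.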

The subject of the next assay is sorghum. Kind of assay: Test A pre-emergence. It is filed as in vivo. The arrangement: key: 0 = no effect, 10 = maximum effect; letter = response symbol. The settings on record: 0.4 kg/ha. The gist of the method: as §1
The subject of a further assay is corn. Kind of assay: Test A pre-emergence. The class given is in vivo. The arrangement: key: 0 = no effect, 10 = maximum effect; letter = response symbol. The settings on record: 0.4 kg/ha. The method in brief:
as §1

A further assay has as its system rice. Kind of assay: Test A pre-emergence. The settings on record: 0.4 kg/ha. It is filed as in vivo. Set-up: key: 0 = no effect, 10 = maximum effect; letter = response symbol. The method in brief:
as §1

The test system of another assay is soybean. Kind of assay: Test A pre-emergence. The class given is in vivo. Set-up: key: 0 = no effect, 10 = maximum effect; letter = response symbol. The conditions noted are these: 0.4 kg/ha. The gist of the method: as §1
The test system of another assay is wheat. Kind of assay: Test A pre-emergence. The settings on record: 0.4 kg/ha. It is filed as in vivo. Set-up: key: 0 = no effect, 10 = maximum effect; letter = response symbol. The method in brief: as §1
Another assay concerns nutsedge. Kind of assay: Test A pre-emergence. The class given is in vivo, Cyperus rotundus. The settings on record: 0.4 kg/ha. The text has this:
The activity of these compounds was discovered in a number of greenhouse and field tests. The ratings are based on a numerical scale extending from 0=no effect, to 10=maximum effect. The accompanying descriptive symbols have the following meanings:
Seeds of crabgrass (Digitaria spp.), barnyardgrass (Echinochloa crusgalli), wild oats (Avena fatua), cassia (Cassia tora), morningglory (Ipomoea spp.), cocklebur (Xanthium spp.), sorghum, corn, soybean, rice, wheat and nutsedge tubers (Cyperus rotundus) were planted in a growth medium and treated preemergence with a nonphytotoxic solvent solution of the compounds of Table XII. Other batches of seeds and tubers for all of the foregoing weed and crop plants were planted at the same time as controls. The control plantings were untreated; i.e., neither any compound nor any solvent was applied. At the same time, cotton having five leaves (including cotyledonary ones), bush beans with the third trifoliate leaf expanding, crabgrass with two leaves, barnyardgrass with two leaves, wild oats with two leaves, cassia with three leaves (including cotyledonary ones), morningglory with four leaves (including the cotyledonary ones), cocklebur with four leaves (including the cotyledonary ones), sorghum with four leaves, corn with four leaves, soybean with two cotyledonary leaves, rice with three leaves, wheat with one leaf, and nutsedge with three-five leaves were sprayed with a nonphytotoxic solvent solution of the compounds of Table XII. Other groups of all the same weed and crop plants were sprayed with the same nonphytotoxic solvent so as to provide control plants. Preemergence and postemergence treated plants and controls were maintained in a greenhouse for sixteen days, then all treated plants were compared with their respective controls and rated visually for response to treatment.

The subject of the next assay is wild oats. Put plainly: Test A pre-emergence. The arrangement: key: 0 = no effect, 10 = maximum effect; letter = response symbol. It is filed as in vivo, Avena fatua. The conditions noted are these: 0.4 kg/ha. The gist of the method: as §1
The next assay has as its system morningglory. Kind of assay: Test A pre-emergence. It is filed as in vivo, Ipomoea spp. Set-up: key: 0 = no effect, 10 = maximum effect; letter = response symbol. The conditions noted are these: 0.4 kg/ha. The method in brief: as §1
In another assay the test system is barnyardgrass. Kind of assay: Test A pre-emergence. It is filed as in vivo, Echinochloa crusgalli. The arrangement: key: 0 = no effect, 10 = maximum effect; letter = response symbol. The settings on record: 0.4 kg/ha. The gist of the method: as §1
In a further assay the test system is cassia. Kind of assay: Test A pre-emergence. Set-up: key: 0 = no effect, 10 = maximum effect; letter = response symbol. The conditions noted are these: 0.4 kg/ha. It is filed as in vivo, Cassia tora. The method in brief: as §1
In a further assay the test system is cocklebur. Put plainly: Test A pre-emergence. It is filed as in vivo, Xanthium spp. The arrangement: key: 0 = no effect, 10 = maximum effect; letter = response symbol. The settings on record: 0.4 kg/ha. The method in brief:
as §1

Assay [1] deals with purple nutsedge. Kind of assay: Test F soil incorporated. The class given is in vivo, Cyperus rotundus. The text has this: (§2) Purple nutsedge tubers (Cyperus rotundus) were planted about 2 cm deep in Fallsington silt loam contained in plastic pots 10 cm in diameter. Five tubers were put in each pot. Compounds of this invention were sprayed dissolved in a non-phytotoxic solvent at a volume rate of 560 l/ha. in four different methods of treatment, i.e., soil surface spray, tuber/soil spray, soil incorporated and post-emergence. For the soil surface spray, the compounds were sprayed on the firmed soil surface immediately after planting. For the tuber/soil spray, the compounds were sprayed on the exposed tubers and subtending soil before the untreated covering soil was added. Soil incorporation treatments were mixed in the covering soil. Post-emergence treatments were sprayed on the nutsedge foliage and surrounding soil surface after the nutsedge had emerged and had reached the height of about 12 cm.
(§3) Immediately after spraying the surface spray, tuber/soil spray and soil incorporated treatments were misted with about 0.3 cm of water over a 90 minute period and then placed in the greenhouse. Post-emergence treatments were placed directly into the greenhouse and watered carefully so that treatments would not be washed from the foliage.

Assay [2] relates to purple nutsedge. Kind of assay: Test F post-emergence. The class given is in vivo, Cyperus rotundus.
Description: as §2, §3

The test system of assay [3] is purple nutsedge. Kind of assay: Test F tuber/soil spray. It is filed as in vivo, Cyperus rotundus.
Description: as §2, §3

In assay [4] the test system is purple nutsedge. Put plainly: Test F soil surface spray. The class given is in vivo, Cyperus rotundus.
Description: as §2, §3

Regarding `CCCCCCCCCCOC(=O)c1ccccc1S(=O)(=O)NC(=O)Nc1nc(OC)nc(OC)n1` [drawing 496], the response rating amounted to 0 with crabgrass; 2H in the assay on sorghum; 2G in the assay on corn; 0 with rice; 1C with soybean; 0 in the assay on wheat. For the same compound, the response rating in the assay with nutsedge is on record as 0; with wild oats it was 0; with morningglory, 4G; in the assay with barnyardgrass, 0.
Consider `CCCC(OC(=O)c1ccccc1S(=O)(=O)NC(=O)Nc1nc(C)nc(OC)n1)C(C)C` (centres unmarked) [drawing 525], for which the response rating with cassia worked out at 8G; in the assay with crabgrass, 0; in the assay with corn it was 8G; in the assay with rice, 9H; in the assay with soybean it was 9H; in the assay with wheat it was 3G. Also, the response rating in the assay on nutsedge was determined as 5G; in the assay on wild oats, 5G; with cocklebur, 8G; in the assay with morningglory it was 9G; in the assay on barnyardgrass, 9H.
As for `COC(=O)c1ccccc1S(=O)(=O)NC(=O)Nc1nnc(C)c(C)n1` [drawing 597], the “response rating after 4 weeks” value is 3G in the assay with purple nutsedge [1] (.032 kg/ha); 0 in the assay with purple nutsedge [2] (.032 kg/ha); 9C with purple nutsedge [2] (.125 kg/ha); 10C in the assay on purple nutsedge [2] (.5 kg/ha); 2G with purple nutsedge [3] (.032 kg/ha); 2G in the assay on purple nutsedge [4] (.032 kg/ha).
In the case of `COC(=O)c1cc(Cl)ccc1S(=O)(=O)NC(=O)Nc1nc(C)cc(OC)n1` [drawing 604], the “response rating after 4 weeks” value came out at 7G with purple nutsedge [1] (.008 kg/ha); 9C in the assay on purple nutsedge [2] (.032 kg/ha); 9C with purple nutsedge [2] (.125 kg/ha); 7G with purple nutsedge [3] (.008 kg/ha); 9G in the assay on purple nutsedge [4] (.032 kg/ha).
`COC(=O)c1ccccc1S(=O)(=O)NC(=O)N(C)c1nc(C)cc(C)n1` [drawing 486]: the response rating in the assay with cassia is 0; in the assay on crabgrass, 3G; in the assay on sorghum, 4G; in the assay on corn, 3G; with rice it was 8H; in the assay on soybean, 0. Moreover, the response rating is on record as 4H in the assay with wheat; 0 in the assay on nutsedge; 0 in the assay with wild oats; 0 with morningglory; 2G with barnyardgrass.
For `COC(=O)c1cc(Cl)ccc1S(=O)(=O)NC(=O)Nc1nc(OC)nc(OC)n1` [drawing 603], the “response rating after 4 weeks” value was 5G with purple nutsedge [1] (.008 kg/ha); 7G with purple nutsedge [1] (.032 kg/ha); 9G in the assay with purple nutsedge [1] (.125 kg/ha); 3G with purple nutsedge [2] (.008 kg/ha); 10C with purple nutsedge [2] (.125 kg/ha); 4G in the assay with purple nutsedge [3] (.008 kg/ha). Further, the “response rating after 4 weeks” value is 7G with purple nutsedge [3] (.032 kg/ha); 9G with purple nutsedge [3] (.125 kg/ha); 3G with purple nutsedge [4] (.008 kg/ha); 7G in the assay with purple nutsedge [4] (.032 kg/ha); 9G with purple nutsedge [4] (.125 kg/ha).
Regarding `COc1nc(C)nc(NC(=O)NS(=O)(=O)c2ccccc2C(=O)OC2CCCC2)n1` [drawing 512], the response rating with cassia was 8G; in the assay on crabgrass, 6G; with rice, 9H; in the assay on soybean it was 9H; in the assay on wheat, 4G; in the assay with nutsedge, 9G. The response rating with wild oats is recorded as 4G; in the assay on cocklebur, 9G; with morningglory, 9G; in the assay with barnyardgrass, 9H.
For the compound `COc1nc(NC(=O)NS(=O)(=O)c2ccccc2C(=O)OC(C)C)nc(OC)n1` [drawing 600], the “response rating after 4 weeks” value in the assay with purple nutsedge [1] (.004 kg/ha) amounted to 8G; in the assay with purple nutsedge [1] (.008 kg/ha) it was 8G; with purple nutsedge [2] (.004 kg/ha), 8C; in the assay on purple nutsedge [2] (.008 kg/ha), 9C; with purple nutsedge [2] (.016 kg/ha), 9C; with purple nutsedge [2] (.032 kg/ha), 10C. Besides, the “response rating after 4 weeks” value in the assay with purple nutsedge [3] (.004 kg/ha) amounted to 7G; with purple nutsedge [3] (.008 kg/ha), 8G; in the assay with purple nutsedge [4] (.004 kg/ha), 8G; in the assay on purple nutsedge [4] (.008 kg/ha), 8G.
`COc1cc(OC)nc(NC(=O)NS(=O)(=O)c2ccccc2C(=O)OC2CCCCC2)n1` [drawing 498]: the response rating was found to be 3G in the assay on cassia; 0 with crabgrass; 8G in the assay with sorghum; 9H in the assay on rice; 3G with wheat; 5G with nutsedge. Further, the response rating in the assay with wild oats was 5G; in the assay with cocklebur, 8G; in the assay with morningglory, 8G; in the assay with barnyardgrass it was 9H.
For `CCCCCCCCCCOC(=O)c1ccccc1S(=O)(=O)NC(=O)Nc1nc(C)nc(OC)n1` [drawing 497], the response rating with crabgrass stood at 2G; in the assay with sorghum it was 3G; in the assay with corn, 4G; in the assay with rice it was 0; with soybean it was 0; in the assay with wheat it was 0. Also, the response rating in the assay on nutsedge worked out at 2G; with wild oats, 0; in the assay with morningglory, 0; in the assay with barnyardgrass it was 0.
Regarding `COC(=O)c1ccccc1S(=O)(=O)NC(=O)Nc1ncccn1` [drawing 596], the “response rating after 4 weeks” value turned out to be 0 in the assay with purple nutsedge [1] (.032 kg/ha); 0 with purple nutsedge [2] (.032 kg/ha); 9C with purple nutsedge [2] (.125 kg/ha); 2G with purple nutsedge [3] (.032 kg/ha); 0 with purple nutsedge [4] (.032 kg/ha).
As to `COc1nc(NC(=O)NS(=O)(=O)c2ccccc2C(=O)OC2CCCCC2)nc(OC)n1` [drawing 499], the response rating is given as 2C with cassia; 0 with crabgrass; 8G in the assay on sorghum; 5G in the assay with rice; 2C with soybean; 2G in the assay with wheat. Also, the response rating with nutsedge was determined as 0; in the assay on wild oats it was 2G; in the assay with cocklebur, 9C; in the assay with morningglory it was 9G; in the assay with barnyardgrass it was 9H.

The values are drawn from patent US4383113A, “Agricultural sulfonamides” (E. I. Du Pont de Nemours and Company, priority 1981, dated 1983).
